Laboratory results as given in US10023587B2, “Oxabicycloheptanes and oxabicycloheptenes, their preparation and use” (LIXTE BIOTECHNOLOGY, INC., priority 2007, dated 2018).

How the values were obtained:
[1] = test system: 23 clinical fungal isolates; assay: Antifungal susceptibility testing, whole panel of 23 isolates; format: cell-based; settings: at the levels tested, 0.125-64 μg/ml
Protocol: Anti-fungal testing was completed with a common lot for compounds 100 and 102.
A 10 mg portion of each powder was weighed out and added to 1 ml of sterile distilled water for compound 100 and DMSO for compound 102. The resulting concentration of […] was diluted to a working concentration of 640 μg/ml for each compound. All subsequent dilutions were also made using the respective diluents. Final testing concentrations ranged from 0.125-64 μg/ml.
A total of 23 isolates were tested to include 3 Candida albicans, 3 Candida glabrata, 3 Cryptococcus neoformans, 3 Aspergillus fumigatus, 3 Rhizopus oryzae, 3, Fusarium solani, 3 Pseudallescheria boydii, and 2 […] rubrum. All isolates were clinical isolates submitted to the Fungus Testing Laboratory for evaluation. Antifungal susceptibility testing was accomplished according to the methods outlined in the National Committee for Clinical Laboratory Standards, M-27A2, Reference Method for Broth Dilution Antifungal Susceptibility Testing of Yeasts; Approved Standard, and M38-A “Reference Method for Broth Dilution Antifungal Susceptibility Testing of Conidium-Forming Filamentous Fungi; Approved Standard”. This includes testing in RPMI-1640 with glutamine and without bicarbonate, an inoculum size of 0.5-2.5×10^3 for yeasts or 1-5×10^4 for moulds, and incubation at 35° C. for 24 and 48 hours.

GBM cell line U87 = assay: U87 xenograft tumor growth in SCID mice; format: in vivo; settings: subcutaneous in SCID mice, ip daily for 20 days (FIG. 17)
Protocol: For in vivo experiments, subcutaneously implanted tumor cells are allowed to grow over 7 days to a size of 5-7 mm. On day 7, drug administration is begun ip daily for 20 days. The maximum perpendicular diameters of the tumor masses are measured every 2 to 5 days. On the 21st day after initiation of treatment, the animals are sacrificed and dissected free of the subcutaneous tissues and measured.

[2] = test system: medulloblastoma cell line DAOY; assay: Inhibition of growth of medulloblastoma cell line DAOY; format: cell-based; settings: over 7 days (FIG. 16)
Excerpt: For all cell culture experiments, cells are allowed to grow in the presence or absence of different concentrations of drug or in the presence of the vehicle used to dissolve the drug, PBS for compound 100 and DMSO for compound 102. Cell counts are done in triplicate on day 3 and day 7 and inhibition of growth is expressed as a percentage of the number of cells present in the experimental well divided by the number of cells in a control well.

Structure (SMILES): CN1CCN(C(=O)C2C(C(=O)O)[C@H]3CC[C@@H]2O3)CC1 (stereo partly drawn) [Compound 100, Endothall 4-Methylpiperazine Monoamide]
- Antifungal activity, all isolates (in words) [1]: no activity
- Effect on U87 xenograft tumor growth (in words) (GBM cell line U87): supresses the growth
- Inhibition of growth of DAOY (in words) [2]: dose dependent inhibition
